# Measurements: patent US20250214942A1, “INHIBITORS OF RECEPTOR INTERACTING PROTEIN KINASE I FOR THE TREATMENT OF DISEASE” (Board of Regents, The University of Texas System, priority 2019, published 2025)
# Legend:
# [1] = biological target: RIPK1 (Homo sapiens (Human), UniProt Q13546); experiment: ADP-Glo kinase assay (RIPK1 activity, conversion of ATP to ADP); assay type: biochemical; settings: 5 nM RIPK1, 50 μM ATP, 6 h reaction; read-out: RIPK1 Enzyme Avg IC50
# Summary of the method: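 ADP-Glo luminescence of ATP-to-ADP conversion by 5 nM RIPK1 with 50 μM ATP (final), 6 h reaction after 10 min compound preincubation at rt. Buffer was 50 mM HEPES pH 7.5, 30 mM MgCl2, 0.05% BSA, 0.02% CHAPS. IC50 from four-parameter logistic fit.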
# [2] = test system: human monocytic cell line U937; experiment: Human U937 cellular necroptosis assay (TNFalpha + z-VAD-FMK, Cell Titer-Glo viability); assay type: cell-based; settings: Homo sapiens, U-937, 22 h, U937 cells, 25 ng/mL human TNFalpha + 25 μM z-VAD-FMK, read-out: hU937 Avg IC50
# Summary of the method: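 Cells resuspended in phenol red-free RPMI with 10% FBS, stimulated with 25 ng/mL human TNFalpha plus 25 μM z-VAD-FMK, then given serially diluted compound for 22 h at 37° C, 5% CO2. Viability by Cell Titer-Glo 2.0 luminescence; IC50 from four-parameter logistic fit, averaged across runs.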
# RIPK1, sequence (Q13546 1-327): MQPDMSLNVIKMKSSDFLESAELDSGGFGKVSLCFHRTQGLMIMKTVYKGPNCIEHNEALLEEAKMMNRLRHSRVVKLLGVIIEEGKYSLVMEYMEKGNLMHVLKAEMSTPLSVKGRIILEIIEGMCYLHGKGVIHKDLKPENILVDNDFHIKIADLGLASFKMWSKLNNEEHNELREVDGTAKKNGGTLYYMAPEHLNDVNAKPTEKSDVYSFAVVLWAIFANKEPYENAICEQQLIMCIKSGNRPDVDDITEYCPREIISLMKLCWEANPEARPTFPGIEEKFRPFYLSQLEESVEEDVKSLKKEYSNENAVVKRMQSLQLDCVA
SMILES,IC50 [1] [nM],IC50 [2] [nM]
"Cc1c2cc(C#N)ccc2nn1CC12CC(C(=O)N3N=CCC3c3cncc(F)c3)(C1)C2 (stereo not drawn) [Example 129, 2-((3-(5-(5-fluoropyridin-3-yl)-4,5-dihydro-1H-pyrazole-1-carbonyl)bicyclo[1.1.1]-pentan-1-yl)methyl)-3-methyl-2H-indazole-5-carbonitrile]",515,3860
"Cc1nn(CC23CC(C(=O)N4N=CCC4c4cncc(F)c4)(C2)C3)c2ccc(C#N)cc12 (stereo not drawn) [Example 130, 1-((3-(5-(5-fluoropyridin-3-yl)-4,5-dihydro-1H-pyrazole-1-carbonyl)bicyclo[1.1.1]-pentan-1-yl)methyl)-3-mcthyl-1H-indazole-5-carbonitrile]",238,1240
"Cc1cnc(C2CC=NN2C(=O)C23CC(Cn4cc(C#N)cn4)(C2)C3)cn1 (stereo not drawn) [Example 131, 1-((3-(5-(5-methylpyrazin-2-yl)-4,5-dihydro-1H-pyrazole-1-carbonyl)bicyclo[1.1.1]-pentan-1-yl)methyl)-1H-pyrazole-4-carbonitrile]",375,1920
"Cc1ccc2c(cnn2CC23CC(C(=O)N4N=CCC4c4cncc(F)c4)(C2)C3)n1 (stereo not drawn) [Example 132, (5-(5-fluoropyridin-3-yl)-4,5-dihydro-1H-pyrazol-1-yl)(3-((5-methyl-1H-pyrazolo[4,3-b]pyridin-1-yl)methyl)-bicyclo[1.1.1]pentan-1-yl)methanone]",139,826
"N#Cc1cccc(C2CC=NN2C(=O)C23CC(Cn4cc(C#N)cn4)(C2)C3)c1 (stereo not drawn) [Example 137, 1-((3-(5-(3-cyanophenyl)-4,5-dihydro-1H-pyrazole-1-carbonyl)bicyclo[1.1.1]-pentan-1-yl)methyl)-1H-pyrazole-4-carbonitrile]",379,2690
"N#Cc1cnn(CC23CC(C(=O)N4N=CCC4c4ccccc4)(C2)C3)c1 (stereo not drawn) [Example 138, 1-((3-(5-phenyl-4,5-dihydro-1H-pyrazole-1-carbonyl)-bicyclo[1.1.1]pentan-1-yl)methyl)-1H-pyrazole-4-carbonitrile]",113,417
"N#Cc1cccc(C2CC=NN2C(=O)C23CC(Cn4ncc5ncccc54)(C2)C3)c1 (stereo not drawn) [Example 139, 3-(1-(3-((1H-pyrazolo[4,3-b]-pyridin-1-yl)methyl)bicyclo-[1.1.1]pentane-1-carbonyl)-4,5-dihydro-1H-pyrazol-5-yl)benzonitrile]",95,493
"N#Cc1cccc2cnn(CC34CC(C(=O)N5N=CCC5c5cc(F)cc(F)c5)(C3)C4)c12 (stereo not drawn) [Example 143, 1-((3-(5-(3,5-difluorophenyl)-4,5-dihydro-1H-pyrazole-1-carbonyl)bicyclo[1.1.1]-pentan-1-yl)methyl)-1H-indazole-7-carbonitrile]",122,495
"O=C(N1N=CCC1c1cc(F)cc(F)c1)C12CC(Cn3cc4c(n3)CCC4)(C1)C2 (stereo not drawn) [Example 144, (5-(3,5-difluorophenyl)-4,5-dihydro-1H-pyrazol-1-yl)(3-((5,6-dihydrocyclopenta[c]-pyrazol-2(4H)-yl)methyl)-bicyclo[1.1.1]pentan-1-yl)methanone]",145,1180
"O=C(N1N=CCC1c1cc(F)cc(F)c1)C12CC(Cn3ncc4c3CCC4)(C1)C2 (stereo not drawn) [Example 145, (5-(3,5-difluorophenyl)-4,5-dihydro-1H-pyrazol-1-yl)(3-((5,6-dihydrocyclopenta[c]-pyrazol-1(4H)-yl)methyl)-bicyclo[1.1.1]pentan-1-yl)methanone]",169,701
"N#Cc1cnn2ccn(CC34CC(C(=O)N5N=CCC5c5cc(F)cc(F)c5)(C3)C4)c12 (stereo not drawn) [Example 146, 1-((3-(5-(3,5-difluorophenyl)-4,5-dihydro-1H-pyrazole-1-carbonyl)bicyclo[1.1.1]-pentan-1-yl)methyl)-1H-imidazo[1,2-b]pyrazole-7-carbonitrile]",324,1920
"Cc1cnc(C2CC=NN2C(=O)C23CC(Cn4ncc5ncccc54)(C2)C3)cn1 (stereo not drawn) [Example 151, (3-((1H-pyrazolo[4,3-b]-pyridin-1-yl)methyl)bicyclo-[1.1.1]pentan-1-yl)(5-(5-methylpyrazin-2-yl)-4,5-dihydro-1H-pyrazol-1-yl)methanone]",242,1190
"Cc1c2ccccc2nn1CC12CC(C(=O)N3N=CCC3c3cc(F)cc(F)c3)(C1)C2 (stereo not drawn) [Example 152, (5-(3,5-difluorophenyl)-4,5-dihydro-1H-pyrazol-1-yl)(3-((3-methyl-2H-indazol-2-yl)-methyl)bicyclo[1.1.1]pentan-1-yl)methanone]",98,363
"Cc1nn(CC23CC(C(=O)N4N=CCC4c4cc(F)cc(F)c4)(C2)C3)c2ccccc12 (stereo not drawn) [Example 153, (5-(3,5-difluorophenyl)-4,5-dihydro-1H-pyrazol-1-yl)(3-((3-methyl-1H-indazol-1-yl)-methyl)bicyclo[1.1.1]pentan-1-yl)methanone]",204,553
"N#CC1CCN(CC23CC(C(=O)N4N=CCC4c4cc(F)cc(F)c4)(C2)C3)C1 (stereo not drawn) [Example 155, 1-((3-(5-(3,5-difluorophenyl)-4,5-dihydro-1H-pyrazole-1-carbonyl)bicyclo[1.1.1]-pentan-1-yl)methyl)-pyrrolidine-3-carbonitrile]",814,5290
"O=C(N1N=CCC1c1cc(F)cc(F)c1)C12CC(Cn3cc(C4CC4)nn3)(C1)C2 (stereo not drawn) [Example 159, (3-((4-cyclopropyl-1H-1,2,3-triazol-1-yl)methyl)bicyclo-[1.1.1]pentan-1-yl)(5-(3,5-difluorophenyl)-4,5-dihydro-1H-pyrazol-1-yl)methanone]",1120,3610

# Now those with a lower IC50 [1], led by results:
IC50 [1] [nM],SMILES,IC50 [2] [nM]
20,"O=C(N1N=CCC1c1cc(F)cc(F)c1)C12CC(Cn3ccc4cc(F)ccc43)(C1)C2 (stereo not drawn) [Example 133, (5-(3,5-difluorophenyl)-4,5-dihydro-1H-pyrazol-1-yl)(3-((5-fluoro-1H-indol-1-yl)-methyl)bicyclo[1.1.1]pentan-1-yl)methanone]",10
24,"O=C(N1N=CCC1c1cc(F)cc(F)c1)C12CC(Cn3ccc4ncc(F)cc43)(C1)C2 (stereo not drawn) [Example 134, (5-(3,5-difluorophenyl)-4,5-dihydro-1H-pyrazol-1-yl)(3-((6-fluoro-1H-pyrrolo[3,2-b]-pyridin-1-yl)methyl)-bicyclo[1.1.1]pentan-1-yl)methanone]",46
18,"O=C(N1N=CCC1c1cc(F)cc(F)c1)C12CC(Cn3ncc4nccnc43)(C1)C2 (stereo not drawn) [Example 135, (3-((1H-pyrazolo[3,4-b]-pyrazin-1-yl)methyl)-bicyclo[1.1.1]pentan-1-yl)(5-(3,5-difluorophenyl)-4,5-dihydro-1H-pyrazol-1-yl)methanone]",53
20,"O=C(N1N=CCC1c1cc(F)cc(F)c1)C12CC(Cn3ccc4cncnc43)(C1)C2 (stereo not drawn) [Example 136, (3-((7H-pyrrolo[2,3-d]-pyrimidin-7-yl)methyl)-bicyclo[1.1.1]pentan-1-yl)(5-(3,5-difluorophenyl)-4,5-dihydro-1H-pyrazol-1-yl)-methanone]",58
49,"O=C(N1N=CCC1c1cc(F)cc(F)c1)C12CC(Cn3nc4ccccc4c3Cl)(C1)C2 (stereo not drawn) [Example 140, (3-((3-chloro-2H-indazol-2-yl)methyl)bicyclo[1.1.1]-pentan-1-yl)(5-(3,5-difluorophenyl)-4,5-dihydro-1H-pyrazol-1-yl)methanone]",53
34,"O=C(N1N=CCC1c1cc(F)cc(F)c1)C12CC(Cn3nc(Cl)c4ccccc43)(C1)C2 (stereo not drawn) [Example 141, (3-((3-chloro-1H-indazol-1-yl)methyl)bicyclo[1.1.1]-pentan-1-yl)(5-(3,5-difluorophenyl)-4,5-dihydro-1H-pyrazol-1-yl)methanone]",58
79,"N#Cc1cccc2cn(CC34CC(C(=O)N5N=CCC5c5cc(F)cc(F)c5)(C3)C4)nc12 (stereo not drawn) [Example 142, 2-((3-(5-(3,5-difluorophenyl)-4,5-dihydro-1H-pyrazole-1-carbonyl)bicyclo[1.1.1]pentan-1-yl)methyl)-2H-indazole-7-carbonitrile]",750
30,"O=C(N1N=CCC1c1ccccc1)C12CC(Cn3ncc4ncccc43)(C1)C2 (stereo not drawn) [Example 147, (3-((1H-pyrazolo[4,3-b]-pyridin-1-yl)methyl)-bicyclo[1.1.1]pentan-1-yl)(5-phenyl-4,5-dihydro-1H-pyrazol-1-yl)methanone]",142
38,"Cc1cnn(CC23CC(C(=O)N4N=CCC4c4cc(F)cc(F)c4)(C2)C3)c1C#N (stereo not drawn) [Example 156, 1-((3-(5-(3,5-difluorophenyl)-4,5-dihydro-1H-pyrazole-1-carbonyl)bicyclo[1.1.1]-pentan-1-yl)methyl)-4-methyl-1H-pyrazole-5-carbonitrile]",159
42,"Cc1cn(CC23CC(C(=O)N4N=CCC4c4cc(F)cc(F)c4)(C2)C3)nc1C#N (stereo not drawn) [Example 157, 1-((3-(5-(3,5-difluorophenyl)-4,5-dihydro-1H-pyrazole-1-carbonyl)bicyclo[1.1.1]-pentan-1-yl)methyl)-4-methyl-1H-pyrazole-3-carbonitrile]",170
24,"O=C(N1N=CCC1c1cc(F)cc(F)c1)C12CC(Cn3ccn4nccc34)(C1)C2 (stereo not drawn) [Example 158, (3-((1H-imidazo[1,2-b]-pyrazol-1-yl)methyl)-bicyclo[1.1.1]pentan-1-yl)(5-(3,5-difluorophenyl)-4,5-dihydro-1H-pyrazol-1-yl)methanone]",62
